Experimental data: publication PMC8929329, “The pharmaceutical excipient PEG400 affect the absorption of baicalein in Caco‐2 monolayer model by interacting with UDP‐glucuronosyltransferases and efflux transport proteins” (Pharmacology Research & Perspectives, 2022)
Where two headings read alike, the source gives them in different places.

What was measured:
Stability study in HBSS = assay type: physicochemical; conditions: 37°C, 2 h
Protocol: The test was carried out by measuring the content of B, BG, and B6G before and after keeping in the HBSS solution at 37°C for 2 h. The time interval was selected according to the permeation experiment. The differences between the contents of the three samples before or after the incubation were calculated and expressed as the percentage of B, BG, and B6G remaining.

[1] = Permeation experiments on Caco-2 cell monolayer (two-way transport); assay type: in vitro ADME, human; conditions: human, read-out: corrected apparent permeability (Pcorrected); for Papp at 120 min, 5 μM: baicalein 5 μM; for Papp at 120 min, 15 μM: baicalein 15 μM
Protocol: (§1) Cell culture was performed as previously described.[15] For transport experiments, Caco-2 cells from passage number 20-30 were seeded at a density of 2 × 10^5 cells per well on transwell plate (a solid insert for cell culture contains porous permeable polycarbonate membrane) with polycarbonate membranes using a blood-counting chamber (QIU JING®). A 0.5 ml of culture medium with cells was added to the apical side (AP) and 1.5 ml of blank culture medium was added to the basolateral side (BL). During the incubation period, the medium on the AP and BL sides were changed every 2 days in the first week, and every day after a week until the 21st day. The permeation of samples was assessed in both directions at different concentrations. This experiment assessed the influence of different concentrations (%, v/v) of PEG400 on the permeation process of B, BG, and […]. […] Caco-2 cell monolayers with qualified monolayer membrane integrity were used for drug permeability experiments. Aspirated and discarded the original culture medium in the transwell plate, added pre-warmed (37°C) HBSS to wash 3 times, put it in the incubator for the last time and incubated for 30 min. […] For the AP-BL permeability (absorptive transport study), add 0.5 ml of samples (dissolved in HBSS) to the apical side (AP) as a supply chamber, and add 1.5 ml of pre-warmed HBSS to the basolateral side (BL) as a receiving chamber. Alternatively, in the permeation direction of BL-AP compartment (secretive transport study), add 1.5 ml of samples (dissolved in HBSS) to the BL side as a supply chamber, and add 0.5 ml of pre-warmed HBSS to the AP side as a receiving chamber. After the above steps, put the transwell plate on the thermostatic oscillator (Changzhou Wanhe Instrument Manufacturing Co., Ltd.) at 60 r/min. And sample 100 μl from the receiving pool or 10 μl from the supply chamber at 30, 60, 90, and 120 min depending on the experiment, and make up the same volume of blank pre-warmed HBSS. The sample taken from the transwell plate was precipitated with the 100 μl of methanol to precipitate the protein. After centrifugation at 16 000g for 15 min at 4°C, 70 μl of the supernatant was taken. And the content was determined by UPLC-MS/MS method to calculate the apparent permeability coefficient (P app) and efflux ratio (ER). The P app and ER of Caco-2 monolayers was measured and calculated as Equations ((2), (3), (4)): (2) Papp=dQ/dt/AC0 Where ΔQ/Δt (ng/ml·s) is the rate of permeability (ng/ml·s for B, BG, […]); A is for the membrane area (1.12 cm^2); C 0 (ng/ml/for B, BG, […]) is the initial concentration of the sample in the supply chamber. The apparent permeability might need to be corrected because of the effect of the marked amount of baicalein glucuronide.[17] Thus, the corrected permeability was calculated from the total rate of drug transport and the glucuronide excretion rate of bidirectional side divided by the membrane area (A) of the monolayer and the initial concentration of baicalein at the loading side (C 0): (3) Pcorrected=dQ/dt+Aex+Bex/AC0 (4) […] - BL Where P appBL-AP is the apparent permeability coefficient when the sample is added on the basolateral side; […]-BL is the apparent permeability coefficient when the sample is added on the apical side.

Caco-2 cell monolayer = test: as above; assay type: in vitro ADME, human
Protocol: as §1

UGT1A9 = test: Enzyme activity assay, intestinal microsome incubation: baicalein glucuronidation to BG; assay type: in vitro ADME, human; conditions: BG formation (UGT1A9)
Protocol: (§2) In this experiment, the effect of PEG400 on the enzyme activities of UGT1A8 and UGT1A9 was evaluated by in vitro microsome incubation. The activity of UGT1A8 and UGT1A9 was determined by detecting the production of BG and B6G with B as substrate.
(§3) The incubation system contained 10 µl of 50 mM Tris‐HCl (pH 7.4) buffer, 10 µl of 5 mM MgCl2 solution, 10 µl of 0.2 mg/ml alamethicin (Aladdin Biochemical Technology), and 20 µl of intestinal microsomes (Xenotech). The incubation system was pre‐incubated on ice for 15 min prior to experiment. Then, added 20 µl baicalein (dissolved in 50 mM Tris‐HCl) and PEG400 (20 µl) or 50 mM Tris‐HCl (20 µl) to the incubation system. The reaction was initiated by adding 5 mM UDPGA (10 µl) and incubated at 37°C for 15 min. The whole reaction was operated in a 1.5 ml centrifuge tube. Finally, the reaction was terminated by adding cold acetonitrile (100 µl) containing the genistein (IS). All solutions were thoroughly mixed for 3 min, then the mixture was centrifuged at 4°C at 16,000g for 15 min to precipitate the proteins completely. The supernatant was transferred and 10 µl was injected into the UPLC‐MS/MS system.
(§4) Kinetics parameters were obtained by fitting the data with Michaelis‐Menten equation (Equation 5) using […] GraphPad Prism® 9. (5) v=Vmax×s/Km+s where v (nmol/min/mg) is the velocity of metabolite formation, V max (nmol/min/mg) is the maximum velocity, K m (µM) is the Michaelis constant defined as the substrate concentration at half of V max, [S] (µM) is the substrate concentration

UGT1A8 = test: Enzyme activity assay, intestinal microsome incubation: baicalein glucuronidation to B6G; assay type: in vitro ADME, human
Protocol: as §2, §3, §4

[2] = B6G formation (UGT1A8), 0.25% PEG400
[3] = B6G formation (UGT1A8), 0.5% PEG400
[4] = B6G formation (UGT1A8), 1% PEG400
[5] = B6G formation (UGT1A8), Control

## O=c1cc(-c2ccccc2)oc2cc(O)c(O)c(O)c12 [B, baicalein]
Stability study in HBSS; 150 ng ml^−1
  Stability (percentage remaining): 98.11 ± 3.85%
Stability study in HBSS; 300 ng ml^−1
  Stability (percentage remaining): 99.70 ± 5.23%
Stability study in HBSS; 600 ng ml^−1
  Stability (percentage remaining): 98.43 ± 7.23%
[1]; Caco-2, 10 μM B loaded on AP side, 0.25% 1% PEG400 group
  Papp at 120 min, 10 μM: 99.7 ×10⁻⁶ cm/s
[1]; Caco-2, 10 μM B loaded on AP side, 0.25% PEG400 group
  Papp at 120 min, 10 μM: 100 ×10⁻⁶ cm/s
[1]; Caco-2, 10 μM B loaded on AP side, 0.5% PEG400 group
  Papp at 120 min, 10 μM: 94.7 ×10⁻⁶ cm/s
[1]; Caco-2, AP-BL
  Papp at 120 min, 5 μM: 73.2 ×10⁻⁶ cm/s
  Papp at 120 min, 15 μM: 53.5 ×10⁻⁶ cm/s
[1]; Caco-2, AP-BL, baicalein 10 μM
  Papp at 120 min, 10 μM: 78.4 ×10⁻⁶ cm/s
[1]; Caco-2, BL-AP, 10 μM B, 0.25% PEG400 group
  Papp at 120 min, 10 μM: 186 ×10⁻⁶ cm/s
[1]; Caco-2, BL-AP, 10 μM B, 0.5% PEG400 group
  Papp at 120 min, 10 μM: 159 ×10⁻⁶ cm/s
[1]; Caco-2, BL-AP, 10 μM B, 1% PEG400 group
  Papp at 120 min, 10 μM: 135 ×10⁻⁶ cm/s
[1]; Caco-2, BL-AP
  Papp at 120 min, 5 μM: 120 ×10⁻⁶ cm/s
  Papp at 120 min, 15 μM: 105 ×10⁻⁶ cm/s
[1]; Caco-2, BL-AP, baicalein 10 μM
  Papp at 120 min, 10 μM: 163 ×10⁻⁶ cm/s
Caco-2 cell monolayer; AL-BL experiment, baicalein 10 μM loaded with 0.5% (v/v) PEG400
  permeation within 2 h compared with the control group: significantly decreased
Caco-2 cell monolayer; BL-AP experiment, baicalein 10 μM loaded with 0.5% (v/v) PEG
  penetration within 2 h compared with the control group: decreased significantly
UGT1A9; 0.25% PEG400
  K m: 14.34 ± 1.92 µM
UGT1A9; 0.25% PEG400, listed as baicalein
  K m: 14.34 ± 1.92 µM
UGT1A9; 0.5% PEG400
  K m: 18.26 ± 3.61 µM
UGT1A9; 1% PEG400
  K m: 28.30 ± 3.33 µM
UGT1A9; 1% PEG400, listed as baicalein
  K m: 28.30 ± 3.33 µM
UGT1A9; Control
  K m: 22.05 ± 3.74 µM
UGT1A8; [2]
  K m: 28.44 ± 8.34 µM
  V max: 4.54 ± 0.40 nmol/min/mg protein
UGT1A8; B6G formation (UGT1A8), 0.25% PEG400, listed as baicalein
  K m: 28.44 ± 8.34 µM
UGT1A8; [3]
  K m: 38.86 ± 3.76 µM
  V max: 6.68 ± 0.29 nmol/min/mg protein
UGT1A8; [4]
  K m: 194.73 ± 48.82 µM
  V max: 24.78 ± 4.67 nmol/min/mg protein
UGT1A8; B6G formation (UGT1A8), 1% PEG400, listed as baicalein
  K m: 194.73 ± 48.82 µM
UGT1A8; [5]
  K m: 43.33 ± 2.63 µM
  V max: 4.64 ± 0.11 nmol/min/mg protein
UGT1A8; UGT1A8, 0.25%PEG400
  V max: 4.54 ± 0.4 nmol/min/mg
UGT1A8; UGT1A8, 0.5% PEG400
  V max: 6.68 ± 0.29 nmol/min/mg
UGT1A8; UGT1A8, 1% PEG400
  V max: 24.8 ± 4.67 nmol/min/mg
UGT1A8; UGT1A8, no PEG400
  V max: 4.64 ± 0.11 nmol/min/mg
